In a compilation of properties of binary mixtures (doi:10.2298/jsc190413047v):

Assay: xn = mol fraction of the nth substance listed
Conditions: 100 kPa

O=C1CCCO1 + CCCC[N+]1(C)CCCC1.O=S(=O)([N-]S(=O)(=O)C(F)(F)F)C(F)(F)F
x1 = 1
Conditions	electrical conductivity [S/m]	viscosity [mPa·s]
298.15 K	0.001	1.73
303.15 K	0.001	1.63
308.15 K	0.001	1.52
313.15 K	0.001	1.42
318.15 K	0.001	1.35
323.15 K	0.002	1.3

O=C1CCCCO1 + CCCC[n+]1ccn(C)c1.O=S(=O)([N-]S(=O)(=O)C(F)(F)F)C(F)(F)F
electrical conductivity [S/m]
Conditions	293.15 K	298.15 K	303.15 K	308.15 K	313.15 K	318.15 K	323.15 K
x2 = 0.0532	0.167	0.18	0.195	–	0.225	0.244	–
x2 = 0.1004	0.395	–	–	–	0.553	0.595	0.636
x2 = 0.1504	–	0.658	–	0.779	0.848	0.924	–
x2 = 0.1999	0.655	0.725	0.797	0.87	0.952	–	–
x2 = 0.2988	0.67	0.744	0.822	–	0.984	1.07	1.16
x2 = 0.4006	–	–	0.741	0.818	0.905	0.99	1.08
x2 = 0.5005	0.522	–	0.669	0.749	0.827	0.92	1.01
x2 = 0.5999	0.411	–	0.559	0.637	0.72	0.815	0.928
x2 = 0.7214	0.385	0.453	0.532	–	0.697	0.789	–
x2 = 0.8475	–	0.418	0.495	0.575	0.658	0.754	0.858
x2 = 0.9003	0.34	0.412	0.484	0.563	0.646	0.745	0.846

O=C1CCCO1 + CCCC[n+]1ccn(C)c1.O=S(=O)([N-]S(=O)(=O)C(F)(F)F)C(F)(F)F
Conditions	electrical conductivity [S/m]	viscosity [mPa·s]
293.15 K, x1 = 0.1005	0.347	46.39
293.15 K, x1 = 0.1984	0.388	37.16
293.15 K, x1 = 0.4001	0.519	23.42
293.15 K, x1 = 0.5021	0.637	17.37
293.15 K, x1 = 0.5979	0.797	12.26
293.15 K, x1 = 0.7021	1.13	8.54
293.15 K, x1 = 0.7999	1.34	5.53
293.15 K, x1 = 0.8995	1.34	3.49
293.15 K, x1 = 0.95	1.04	–
293.15 K, x1 = 1	0.001	1.92
298.15 K, x1 = 0.1005	0.428	38.33
298.15 K, x1 = 0.1984	0.469	30.92
298.15 K, x1 = 0.2992	0.546	24.97
298.15 K, x1 = 0.4001	0.618	19.75
298.15 K, x1 = 0.5979	0.928	10.7
298.15 K, x1 = 0.7021	1.29	7.58
298.15 K, x1 = 0.7999	1.5	5.04
298.15 K, x1 = 0.8496	1.53	–
298.15 K, x1 = 0.8995	1.48	3.26
298.15 K, x1 = 0.95	1.14	–
298.15 K, x1 = 1	0.001	1.73
298.15 K, x2 = 0.0151	0.444	–
303.15 K, x1 = 0.1005	0.501	31.8
303.15 K, x1 = 0.1984	0.552	25.69
303.15 K, x1 = 0.4001	0.72	16.68
303.15 K, x1 = 0.5021	0.853	12.76
303.15 K, x1 = 0.5979	1.05	9.32
303.15 K, x1 = 0.7021	1.43	6.67
303.15 K, x1 = 0.7999	1.65	4.55
303.15 K, x1 = 0.8496	1.69	–
303.15 K, x1 = 0.8995	1.61	2.97
303.15 K, x1 = 0.95	1.23	–
303.15 K, x1 = 1	0.001	1.63
303.15 K, x2 = 0.0151	0.477	–
308.15 K, x1 = 0.1005	0.586	26.88
308.15 K, x1 = 0.1984	0.642	21.98
308.15 K, x1 = 0.2992	0.745	17.9
308.15 K, x1 = 0.4001	0.825	14.35
308.15 K, x1 = 0.5021	0.981	11.04
308.15 K, x1 = 0.7021	1.63	6
308.15 K, x1 = 0.8995	1.75	2.76
308.15 K, x1 = 0.95	1.32	–
308.15 K, x2 = 0.0151	0.509	–
313.15 K, x1 = 0.1005	0.68	22.69
313.15 K, x1 = 0.2992	0.854	15.26
313.15 K, x1 = 0.4001	1	12.32
313.15 K, x1 = 0.5021	1.2	9.62
313.15 K, x1 = 0.7021	1.81	5.41
313.15 K, x1 = 0.7999	1.98	3.78
313.15 K, x1 = 0.8496	2.01	–
313.15 K, x1 = 0.8995	1.88	2.55
318.15 K, x1 = 0.1005	0.768	19.31
318.15 K, x1 = 0.1984	0.85	15.86
318.15 K, x1 = 0.2992	0.965	13.24
318.15 K, x1 = 0.4001	1.19	10.82
318.15 K, x1 = 0.5021	1.4	8.52
318.15 K, x1 = 0.5979	1.64	6.49
318.15 K, x1 = 0.7021	1.99	4.84
318.15 K, x2 = 0.0151	0.576	–
323.15 K, x1 = 0.1005	0.898	16.54
323.15 K, x1 = 0.1984	1.03	13.86
323.15 K, x1 = 0.2992	1.24	11.57
323.15 K, x1 = 0.4001	1.46	9.47
323.15 K, x1 = 0.5021	1.68	7.51
323.15 K, x1 = 0.5979	1.91	5.83
323.15 K, x1 = 0.7021	2.21	4.44
323.15 K, x1 = 0.8496	2.34	–
323.15 K, x1 = 0.8995	2.17	2.18
323.15 K, x1 = 0.95	1.62	–
323.15 K, x2 = 0.0151	0.609	–
